Results published in the supplement of paper PMC5579334.

Tests used:
[1] = test system: YST-1; assay: drug sensitivity score (DSS, CellTiter-Glo viability, 72 h) (DSS (dimensionless)); higher = more sensitive; extreme values may be limits of the assay
Outline: (§1)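 Viability of MPNST cell lines and primary human Schwann cells was read as CellTiter-Glo ATP luminescence after 72 h at 37 °C, 5% CO2, in 384-well plates seeded with 750–1000 cells per well. Each compound had been preprinted at five concentrations in 10-fold steps. Signals were scaled between vehicle and positive-control wells, duplicates averaged where present, and fitted with four-parameter logistic curves. Drug sensitivity score and relative IC50 (censored at the top concentration) come from those fits, and percent inhibition is taken at the top concentration.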

[2] = test system: HS-PSS; assay: as above
Outline: as §1

[3] = test system: HS-Sch-2; assay: as above
Outline: as §1

[4] = test system: YST-1; assay: % inhibition of CellTiter-Glo viability at highest tested concentration (72 h), relative to DMSO and benzethonium chloride controls; higher = more inhibition
Outline: as §1

[5] = test system: HS-PSS; assay: as above
Outline: as §1

[6] = test system: HS-Sch-2; assay: as above
Outline: as §1

[7] = test system: HS-PSS; assay: drug sensitivity score (DSS, CellTox-Green cytotoxicity, 72 h) (DSS (dimensionless)); higher = more cytotoxic; extreme values may be limits of the assay
Outline: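 MPNST cell lines and primary human Schwann cells were grown for 72 h at 37 °C in 384-well plates containing five 10-fold compound dilutions. CellTox-Green, added before seeding at a final 1:1000 dilution, gave fluorescence from DNA released by disrupted cells, and signals were scaled to vehicle and positive-control wells. Curves were fitted with a four-parameter logistic model. Drug sensitivity score and relative IC50 come from these fits, with IC50 censored at the top concentration.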

Compound	drug sensitivity score [1]	drug sensitivity score [2]	drug sensitivity score [3]	% inhibition [4] [%]	% inhibition [5] [%]	% inhibition [6] [%]	drug sensitivity score [7]
c1cn2cc(-c3ccc4cn[nH]c4c3)nc(Nc3ccc(N4CCOCC4)cc3)c2n1 [Entospletinib] (max concentration tested 5000 nM)	0.45	0	0.89	12	-4.13	-16	0.89
NS(=O)(=O)NCCNc1nonc1/C(=N/O)Nc1ccc(F)c(Br)c1 [Epacadostat] (max concentration tested 10000 nM)	0	0	0.29	12.5	6.08	13.3	0
CCn1c(=O)c(-c2ccc(Cl)cc2Cl)cc2cnc(Nc3ccc(N4CCNCC4)c(F)c3)nc21 [FRAX486] (max concentration tested 5000 nM)	0	3.36	9.15	-6.01	11.5	47.6	0
Cc1cnc(Nc2ccc(OCCN3CCCC3)cc2)nc1Nc1cccc(S(=O)(=O)NC(C)(C)C)c1 [Fedratinib] (max concentration tested 10000 nM)	8.29	9.41	10.8	87.1	96.5	102	3.87
CON(C)C(=O)N1N=C(c2cc(F)ccc2F)S[C@@]1(CCCN)c1ccccc1 [Filanesib] (max concentration tested 1000 nM)	25.7	7.81	29.1	78.3	29	88.7	0
O=C(Nc1nc2cccc(-c3ccc(CN4CCS(=O)(=O)CC4)cc3)n2n1)C1CC1 [Filgotinib] (max concentration tested 10000 nM)	1.97	0.09	2.01	45.2	14.3	35.7	0
COc1cc(Nc2ncc(F)c(Nc3ccc4c(n3)N(COP(=O)(O)O)C(=O)C(C)(C)O4)n2)cc(OC)c1OC [Fostamatinib] (max concentration tested 2500 nM)	4.22	2.95	2.96	67.3	40.4	36	0
O=C(NOCCO)c1ccc2cncn2c1Nc1ccc(I)cc1F [GDC-0623] (max concentration tested 2500 nM)	0	3.76	5.27	6.24	37.1	55	0.89
Cn1nccc1Nc1nccc(-c2ccn([C@H](CO)c3ccc(Cl)c(F)c3)c(=O)c2)n1 [GDC-0994] (max concentration tested 10000 nM)	1.37	0	5.84	40	8.18	92.6	0
CNc1nc(Nc2cn(C(C)(C)C#N)nc2C)ncc1C(F)(F)F [GNE-0877] (max concentration tested 1000 nM)	0	2.29	0	-4.9	23.4	5.3	0
CCNc1nc(Nc2cc(F)c(C(=O)N3CCOCC3)cc2OC)ncc1C(F)(F)F [GNE-7915] (max concentration tested 1000 nM)	0	0	0.19	0.1	8.52	12.4	0
CCCOc1ccn2c(C(C)=O)cc(-c3ccccc3S(C)(=O)=O)c2c1 [GSK2801] (max concentration tested 10000 nM)	0	0	0	0.58	0.71	-6.2	0
C[C@H]1C=C2C(=O)O[C@H]3CC[C@@H](C1)[C@@]23O [Galiellalactone] (max concentration tested 25000 nM)	2.78	3.82	7.88	64.8	58.6	93.5	0
CN(C)C1CCN(C(=O)c2ccc(NC(=O)Nc3ccc(-c4nc(N5CCOCC5)nc(N5CCOCC5)n4)cc3)cc2)CC1 [Gedatolisib] (max concentration tested 1000 nM)	19.4	17.4	12	93.2	73.4	80.3	0
CCN(CC)Cc1ccc2cc(COC(=O)Nc3ccc(C(=O)NO)cc3)ccc2c1 [Givinostat] (max concentration tested 1000 nM)	13.1	3.45	8.81	98.9	69.4	98	1.98
CN1CC[C@@H](NC(=O)Nc2ccc(C#N)cc2)C[C@@H]1c1nc2ccccc2[nH]1 [Glasdegib] (max concentration tested 1000 nM)	0	2.26	1.4	1.47	21.2	20.6	0
CN1CCN(C2CCN(C(=O)Nc3cc(Oc4ccc(NC(=O)C5(C(=O)Nc6ccc(F)cc6)CC5)c(F)c4)ccn3)CC2)CC1 [Golvatinib] (max concentration tested 2500 nM)	1.35	0.68	0.68	17.2	23.6	19.2	0
O=S(=O)(c1cccc2c(O)nccc12)N1CCCNCC1 [Hydroxyfasudil] (max concentration tested 37500 nM)	0.03	1.21	1.47	12.7	19.5	21.6	0

Compound	drug sensitivity score [1]	drug sensitivity score [2]	drug sensitivity score [3]	% inhibition [4] [%]	% inhibition [5] [%]	% inhibition [6] [%]	drug sensitivity score [7]
O=C(O)c1ccc(O)c2ncccc12 [IOX-1] (max concentration tested 100000 nM)	2.03	0	0.26	46	1.4	18.7	0
O=C(Nc1nc2ccccc2n1CCN1CCOCC1)c1cccc([N+](=O)[O-])c1 [IRAK1/4 inhibitor] (max concentration tested 25000 nM)	0	0	0	6.78	3.76	-2.86	0
C#Cc1cccc(Nc2ncnc3cc4c(cc23)OCCOCCOCCO4)c1 [Icotinib] (max concentration tested 10000 nM)	1.96	0.72	1.37	23.8	16.4	19.6	0
COc1cc(C(=O)O)ccc1NC(=O)[C@@H]1N[C@@H](CC(C)(C)C)[C@](C#N)(c2ccc(Cl)cc2F)[C@H]1c1cccc(Cl)c1F [Idasanutlin] (max concentration tested 10000 nM)	25.1	5.43	0	98.6	26.1	-12.1	0
CC(C)NC[C@@H](C(=O)N1CCN(c2ncnc3c2[C@H](C)C[C@H]3O)CC1)c1ccc(Cl)cc1 [Ipatasertib] (max concentration tested 10000 nM)	6.9	3.83	4.24	55.2	37.1	39.1	0.28
CCC(C)n1ncn(-c2ccc(N3CCN(c4ccc(OCC5COC(Cn6cncn6)(c6ccc(Cl)cc6Cl)O5)cc4)CC3)cc2)c1=O (stereo not given) [Itraconazole] (max concentration tested 5000 nM)	1.58	4.25	0.33	33.2	50.9	11.3	0
Cc1sc2c(c1C)C(c1ccc(Cl)cc1)=N[C@@H](CC(=O)OC(C)(C)C)c1nnc(C)n1-2 [JQ1] (max concentration tested 10000 nM)	13.1	10	13.1	72.6	59.1	76.3	0
CCCNC(=O)Nc1ccc(Oc2ncnc3cc(OC)c(OC)cc23)cc1Cl [KRN-633] (max concentration tested 2500 nM)	0	0	0	7.23	10.5	-7.09	0
O=C(c1ccc(/C=C/c2n[nH]c3ccccc23)cc1)N1CCNCC1 [KW-2449] (max concentration tested 2500 nM)	2.08	0	0	30.9	10.1	0.48	0
CN[C@@H](C)C(=O)N[C@H](C(=O)N1CCC[C@H]1c1nc(C(=O)c2ccc(F)cc2)cs1)C1CCCCC1 [LCL161] (max concentration tested 25000 nM)	3.14	2.18	2.38	38.7	27.8	44.2	0.11
Nc1cccc2c1CN(C1CCC(=O)NC1=O)C2=O (stereo not given) [Lenalidomide] (max concentration tested 100000 nM)	1.7	0	0.18	20.7	6.75	15.6	0
COc1cc2nccc(Oc3ccc(NC(=O)NC4CC4)c(Cl)c3)c2cc1C(N)=O [Lenvatinib] (max concentration tested 2500 nM)	0.83	0	0.06	18.1	5.51	15	0
NC(=O)N1CCC(CC(=O)N2CCC([C@H]3c4ncc(Br)cc4CCc4cc(Cl)cc(Br)c43)CC2)CC1 [Lonafarnib] (max concentration tested 10000 nM)	5.95	4.36	4.95	64.4	58	55.5	0
Cc1c(F)cc(C(=O)NC2CC2)cc1-c1ccc(C(=O)NCC(C)(C)C)cn1 [Losmapimod] (max concentration tested 10000 nM)	10.1	0	0	32.3	8.01	1.17	0
CC[C@H](C)C(=O)O[C@H]1C[C@@H](C)C=C2C=C[C@H](C)[C@H](CC[C@@H]3C[C@@H](O)CC(=O)O3)[C@H]21 [Lovastatin] (max concentration tested 10000 nM)	0	0	0	0.71	-5.9	-6.45	0
CNC(=O)c1cccc2cc(Oc3ccnc4cc(OCC5(N)CC5)c(OC)cc34)ccc12 [Lucitanib] (max concentration tested 10000 nM)	2.13	1.71	1.19	26.4	23.4	31.9	0
CCNC(=O)c1noc(-c2cc(C(C)C)c(O)cc2O)c1-c1ccc(CN2CCOCC2)cc1 [Luminespib] (max concentration tested 1000 nM)	19.5	14	23.5	79.6	82.2	98.9	3.7
